Experimental data: patent US20240336655A1, “AMPHIPHILIC PEPTIDES FOR NUCLEIC ACID AND PROTEIN DELIVERY” (AJK BIOPHARMACEUTICAL, LLC, priority 2021, published 2024)
Peptide text beside a SMILES is read from it.

Key:
siRNA = assay: Serum stability / protection of siRNA against enzymatic degradation in fetal bovine serum; format: in vitro ADME; settings: 24 hours of exposure to serum, N/P ratio of 40, compared to siRNA exposed to saline
Text: Serum Stability. In order to determine the capability of the complexes to protect the siRNA against enzymatic degradation, Inventors exposed different study groups to a diluted fetal bovine serum (FBS) solution, with “naked” siRNA as a positive control, and siRNA exposed to saline as a negative control according to the previously reported procedure (Mozaffari S, Bousoik E, Amirrad F, Lamboy R, Coyle M, Hall R, Alasmari A, Mahdipoor P, Parang K, Montazeri Aliabadi H. Amphiphilic Peptides for Efficient siRNA Delivery. Polymers (Basel). 2019; 11(4) doi: 10.3390/polym11040703. PubMed PMID: 30999603; PMCID: PMC6523661).
(§1) The binding affinity for [CR4W4C] […] The toxicity of the peptides was evaluated in triple-negative breast cancer (TNBC) cells MDA-MB-231 (as a model cancer cell line) with peptide alone and siRNA complexes, and CCK assay to quantify cell viability after 48 hours.
Protection of siRNA against Enzymatic Degradation. […] After the incubation, complexes were dissociated using a 2:3 mixture of heparin (5% solution in normal saline) and EDTA (0.5 mM), and the samples were analyzed using a 1% agarose gel (with 1 μg/mL ethidium bromide) at 70 V for 20 minutes. UV illumination (Gel-Doc system, Bio-Rad; Hercules, CA) was used to visualize the gel, and the intensity of the bands (representing remaining intact siRNA) was quantified by Image J software (FIG. 8).

MDA-MB-231 cells = assay: Cytotoxicity of peptides and peptide/siRNA complexes in MDA-MB-231 cells (MTT / CCK); format: cell-based, human; settings: as compared to commercial agent lipofectamine
Protocol: as §1
The human breast cancer cell line MDA-MB-231 was purchased from American Type Culture Collection (ATCC; Manassas, VA). MDA-MB-231 was cultured in the DMEM medium. The media was supplemented with 10% (v/v) fetal bovine serum, 100 U/mL penicillin, and 100 μg/ml streptomycin. Cells were maintained in the normal condition of 37° C. and 5% CO2 under a humidified atmosphere and were sub-cultured when 80-100% confluent.
Toxicity of the Peptide/siRNA Complexes: The effect of peptides on the viability of human cell lines was evaluated by exposing the MDA-MB-231 cell lines (FIGS. 9-12) to different concentrations of peptide solution and exposing the cells to peptide/siRNA complexes prepared with different peptides at a various peptide:siRNA ratios according to the previously reported procedure by us (Mozaffari S, Bousoik E, Amirrad F, Lamboy R, Coyle M, Hall R, Alasmari A, Mahdipoor P, Parang K, Montazeri Aliabadi H. Amphiphilic Peptides for Efficient siRNA Delivery. Polymers (Basel). 2019; 11(4). doi: 10.3390/polym11040703. PubMed PMID: 30999603; PMCID: PMC6523661). […]

## N=C(N)NCCC[C@@H]1NC(=O)[C@H](CCCNC(=N)N)NC(=O)[C@H](CCCNC(=N)N)NC(=O)[C@H](CCCNC(=N)N)NC(=O)[C@H](CCCNC(=N)N)NC(=O)[C@@H](NC(=O)[C@H](Cc2c[nH]c3ccccc23)NC(=O)[C@H](Cc2c[nH]c3ccccc23)NC(=O)[C@H](Cc2c[nH]c3ccccc23)NC(=O)[C@@H](N)Cc2c[nH]c3ccccc23)CSSC[C@@H](C(=O)N[C@@H](Cc2c[nH]c3ccccc23)C(=O)N[C@@H](Cc2c[nH]c3ccccc23)C(=O)N[C@@H](Cc2c[nH]c3ccccc23)C(=O)N[C@@H](Cc2c[nH]c3ccccc23)C(=O)O)NC1=O [W4[CR5C]W4] (HELM PEPTIDE1{W.W.W.W.C.R.R.R.R.R.C.W.W.W.W}$PEPTIDE1,PEPTIDE1,5:R3-11:R3$$$V2.0; N-terminus and C-terminus assumed)
siRNA
  protection of siRNA in the presence of serum: protect siRNA completely
MDA-MB-231 cells
  toxicity: without toxicity

## N=C(N)NCCC[C@@H]1NC(=O)[C@H](CCCNC(=N)N)NC(=O)[C@H](CCCNC(=N)N)NC(=O)[C@H](CCCNC(=N)N)NC(=O)[C@@H](N)CSSC[C@@H](C(=O)O)NC(=O)[C@H](Cc2c[nH]c3ccccc23)NC(=O)[C@H](Cc2c[nH]c3ccccc23)NC(=O)[C@H](Cc2c[nH]c3ccccc23)NC(=O)[C@H](Cc2c[nH]c3ccccc23)NC1=O [[CR4W4C]] (HELM PEPTIDE1{C.R.R.R.R.W.W.W.W.C}$PEPTIDE1,PEPTIDE1,1:R3-10:R3$$$V2.0; N-terminus and C-terminus assumed)
siRNA
  protection of siRNA in the presence of serum: protect siRNA completely
MDA-MB-231 cells
  toxicity: without toxicity
